Reference: PubChem BioAssay (NCI)
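GI50 is the concentration that inhibits growth by half. At the TGI there is no net growth.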

Tests used:
Assay in all cases: NCI tumour cell line growth inhibition, 384-well format
BT-549 breast = test system: BT-549 breast
LOX IMVI melanoma = test system: LOX IMVI melanoma
TK-10 renal = test system: TK-10 renal
HCT-116 colon = test system: HCT-116 colon
MALME-3M melanoma = test system: MALME-3M melanoma
SN12C renal = test system: SN12C renal
M14 melanoma = test system: M14 melanoma
T-47D breast = test system: T-47D breast
MOLT-4 leukemia = test system: MOLT-4 leukemia
U251 glioblastoma = test system: U251 glioblastoma
HCC-2998 colon = test system: HCC-2998 colon
KM12 colon = test system: KM12 colon
NCI-H23 lung = test system: NCI-H23 lung

| SMILES | GI50 (BT-549 breast) | TGI (BT-549 breast) | GI50 (LOX IMVI melanoma) | TGI (LOX IMVI melanoma) | GI50 (TK-10 renal) | TGI (TK-10 renal) | GI50 (HCT-116 colon) | TGI (HCT-116 colon) | GI50 (MALME-3M melanoma) | TGI (MALME-3M melanoma) | GI50 (SN12C renal) | TGI (SN12C renal) | GI50 (M14 melanoma) | TGI (M14 melanoma) | GI50 (T-47D breast) | TGI (T-47D breast) | GI50 (MOLT-4 leukemia) | TGI (MOLT-4 leukemia) | GI50 (U251 glioblastoma) | TGI (U251 glioblastoma) | also measured |
| --- | --- | --- | --- | --- | --- | --- | --- | --- | --- | --- | --- | --- | --- | --- | --- | --- | --- | --- | --- | --- | --- |
| O=C1CC(c2ccc(N3CCOCC3)cc2)(c2ccsc2)NC(=O)C1Sc1ccccc1Cl (configuration not stated) | 3.71 µM | 28.3 µM | 35.9 µM | > 100000 nM | 75.9 µM | > 100 µM | 36.8 µM | > 100 µM | > 51200 nM | > 100 µM | 4.53 µM | 23.4 µM | 53.1 µM | > 100 µM | 66 µM | > 100 µM | 9.17 µM | 22 µM | 5.73 µM | 65.7 µM | GI50 (HCC-2998 colon): > 100000 nM; TGI (HCC-2998 colon): > 100 µM; GI50 (KM12 colon): > 57600 nM; TGI (KM12 colon): > 100 µM; GI50 (NCI-H23 lung): > 95800 nM; TGI (NCI-H23 lung): > 100 µM |
| C[C@@H]1CN(C(=O)c2ccc(NC(=O)c3cc(O[C@H](C)c4c(Cl)ccc(F)c4Cl)c(N)nn3)cc2)C[C@H](C)N1 | 2.39 µM | 4.27 µM | 1.26 µM | 2520 nM | 3.5 µM | 10.3 µM | 1.41 µM | 4.34 µM | 1440 nM | 3.08 µM | 1.82 µM | 11.7 µM | 2.47 µM | 6.48 µM | 3.17 µM | 8.97 µM | 0.181 µM | 0.356 µM | 2 µM | 5.25 µM | GI50 (HCC-2998 colon): 2140 nM; TGI (HCC-2998 colon): 7.68 µM; GI50 (KM12 colon): 40.7 nM; TGI (KM12 colon): 5.37 µM; GI50 (NCI-H23 lung): 642 nM; TGI (NCI-H23 lung): 3.76 µM |
